# “And” between values parts separate entries of the source, which are not always exact repeats. Equal entries are not always repeated. Where two headings read alike, the source gives them in different places.
# Experiments:
# PARP [1] = test: PARP activity in peripheral blood lymphocytes of patients (monoclonal antibody assay); assay type: in vivo, human
# Protocol: Whole blood was collected into EDTA vacutainers and human PBLs were obtained by lymphopreparation according to the manufacturers instructions. Tumour biopsies were collected from the operating theatre in a sterile container and placed immediately on ice. Within 30 minutes tumour samples were snap frozen in liquid nitrogen and stored at −80° C. until homogenised for analysis. The specimen was defrosted on ice and the wet weight documented. For weights over 100 mg the tissue was homogenised using a Pro 2000 instrument (Pro Scientific Inc, Monroe, Conn., USA) in 3 volumes (i.e. 1 mg plus 3 μl isotonic buffer −7 mM Hepes, 26 mM KCl, 0.1 mM dextran, 0.4 mM EGTA, 0.5 mM MgCl2, 45 mM sucrose, pH 7.8), giving a homogenate with an overall dilution of 1 in 4. Where smaller samples had been obtained they were homogenised in 99 or 999 volumes, giving final dilutions of 1 in 100 and 1 in 1000, respectively. The homogenate was kept on ice throughout the process, and homogenisation was performed in 10 second bursts to prevent undue warming of the sample. Unless assayed on the day of homogenisation, samples were re-frozen to −80° C. and stored at this temperature until analysed. Prior to assay the samples were further diluted with isotonic buffer where necessary to give a final dilution of 1 in 1000.
# Cultured cells or rapidly defrosted lymphocyte preparations were washed twice in ice cold PBS. The cell pellets were resuspended in 0.15 mg/ml digitonin to a density of approximately 1-2×10^6 cells per ml for 5 minutes to permeabilise the cells, following which 9 volumes of ice-cold buffer (7 mM HEPES, 26 mM KCl, 0.1 mM dextran, 0.4 mM EGTA, 0.5 mM MgCl2, 45 mM sucrose, pH 7.8) were added and the sample placed on ice. The permeabilised (i.e. trypan blue stained) cell density was counted and the cell suspension was diluted if necessary with the above buffer to achieve a cell density that allowed 20,000 permeabilised cells to be added to each reaction tube. In the assay maximally stimulated PARP activity is measured by exposure to a blunt ended oligonucleotide in the presence of NAD^+ substrate, at 26° C. in an oscillating water bath. Five μl of 7 mM NAD^+ and 5 μl 200 μg/ml pallindromic oligonucleotide ([…]) were mixed with permeabilised cells and reaction buffer (100 mM Tris HCl, 120 mM MgCl2, pH 7.8) to a final volume of 100 μl. The reaction was stopped after 6 minutes by the addition of excess PARP inhibitor (400 μl of 12.5 μM Compound I) and the cells blotted onto a nitrocellulose membrane (Hybond N, Amersham) using a 24-well manifold. A purified PAR standard curve was loaded onto each membrane (0-25 pmol monomer equivalent) to allow quantification. Overnight incubation with the primary antibody (1 in 500 in PBS-MT (PBS plus 0.05% Tween 20 Plus 5% Milk powder) at 4° C. was followed by 2 washes in PBS-T (PBS plus 0.05% Tween 20) and then incubation in secondary antibody (1 in 1000 in PBS-MT) for 1 hour at room temperature. The incubated membrane was washed frequently with PBS over the course of one hour then exposed for one minute to ECL reaction solution as supplied by the manufacturer. Chemiluminesence detected during a 5 minute exposure was measured using a Fuji LAS3000 UV Illuminator (Raytek, Sheffield, UK) and digitised using the imaging software (Fuji LAS Image version 1.1, Raytek). The acquired image was analysed using Aida Image Analyser (version 3.28.001), and results expressed in LAU/mm^2. Three background areas on the exposed blot were measured and the mean of the background signal from the membrane subtracted from all results. The PAR polymer standard curve was analysed using an un-weighted one site binding non-linear regression model and unknowns read off the standard curve so generated. Results were then expressed relative to the number of cells loaded. Triplicate QC samples of 5000 L1210 cells were run with each assay, all samples from one patient being analysed on the same blot. […]
# A549 cells = test: Inhibition of cell growth and potentiation of temozolomide/topotecan, A549; assay type: cell-based; conditions: for GI50: Homo sapiens, 120 h, 5-day continuous exposure
# Human protein binding = assay type: in vitro ADME
# Protocol: This value was determined from the target effect (IC89) for inhibition of cellular NAD^+ depletion and poly-ADP-ribose polymer formation and adjusted for protein binding. […] II. Pharmaceutical Combinations of the Present Invention and Their Use
# [2] = IV pharmacokinetics in dogs; conditions: Beagle, in vivo, dog
# LoVo xenografts = test: Tumor growth delay with X-irradiation, LoVo xenografts; assay type: in vivo
# Protocol: The experimental endpoint was defined to be the time required for relative tumor volume to increase to four times the volume measured at the start of treatment (RTV4). Growth delays were calculated from the difference in time taken to achieve RTV4 (days) between IR/Formula 1 treated tumors and untreated controls.
# PARP [3] = test: Inhibition of MNNG-induced cellular NAD depletion and poly-ADP-ribose polymer formation in A549 cells; assay type: cell-based; conditions: for NAD (% DMSO) / Polymer (% MNNG): MNNG 25 μM
# [4] = A549, compound 0.4 μM (Table 6)
# [5] = 15 mg/kg single IV dose as glucuronate salt
compound,measurement,setting,value
"CNCc1ccc(-c2[nH]c3cc(F)cc4c3c2CCNC4=O)cc1.O=P(O)(O)O [Compound I, phosphate salt of 8-fluoro-2-{4-[(methylamino)methyl]phenyl}-1,3,4,5-tetrahydro-6H-azepino[5,4,3-cd]indol-6-one]",decrease in median PARP activity,"PARP [1]; PBL, all patients regardless of dose, after completion of the 30-minute infusion on Day 1",≥ 50%
same,"% Pretreatment PARP Activity, Median (%)","PARP [1]; PBL, cohort 1, Compound I 1 mg/m^2, 4-6 h, after test dose (usually Day −7)",57%
same,"% Pretreatment PARP Activity, Median (%)","PARP [1]; PBL, cohort 1, Compound I 1 mg/m^2, 0.5 h, after test dose (usually Day −7)",18%
same,"% Pretreatment PARP Activity, Median (%)","PARP [1]; PBL, cohort 1, Compound I 1 mg/m^2, 24 h, after test dose (usually Day −7)",77%
same,"% Pretreatment PARP Activity, Median (%)","PARP [1]; PBL, cohort 2, Compound I 2 mg/m^2, 4-6 h, Day 1",27%
same,"% Pretreatment PARP Activity, Median (%)","PARP [1]; PBL, cohort 2, Compound I 2 mg/m^2, 0.5 h, Day 1",10%
same,"% Pretreatment PARP Activity, Median (%)","PARP [1]; PBL, cohort 2, Compound I 2 mg/m^2, 24 h, Day 1",36%
same,"% Pretreatment PARP Activity, Median (%)","PARP [1]; PBL, cohort 3, Compound I 4 mg/m^2, 4-6 h, Day 1",28%
same,"% Pretreatment PARP Activity, Median (%)","PARP [1]; PBL, cohort 3, Compound I 4 mg/m^2, 0.5 h, Day 1",42%
same,"% Pretreatment PARP Activity, Median (%)","PARP [1]; PBL, cohort 3, Compound I 4 mg/m^2, 24 h, Day 1",108%
same,"% Pretreatment PARP Activity, Median (%)","PARP [1]; PBL, cohort 4, Compound I 8 mg/m^2, 4-6 h, Day 1",16%
same,"% Pretreatment PARP Activity, Median (%)","PARP [1]; PBL, cohort 4, Compound I 8 mg/m^2, 0.5 h, Day 1",1%
same,"% Pretreatment PARP Activity, Median (%)","PARP [1]; PBL, cohort 4, Compound I 8 mg/m^2, 24 h, Day 1",9%
same,"% Pretreatment PARP Activity, Median (%)","PARP [1]; PBL, cohort 9, Compound I 18 mg/m^2, 4-6 h, Day 1",7.5%
same,"% Pretreatment PARP Activity, Median (%)","PARP [1]; PBL, cohort 9, Compound I 18 mg/m^2, 0.5 h, Day 1",6%
same,"% Pretreatment PARP Activity, Median (%)","PARP [1]; PBL, cohort 9, Compound I 18 mg/m^2, 24 h, Day 1",14%
same,median reduction in PARP activity,"PARP [1]; PBL, cohorts 4 and 5, 24 hours after Day 1 dose",> 50%
same,"% Pretreatment PARP Activity, Median (%)","PARP [1]; PBL, cohorts 5-8, Compound I 12 mg/m^2, 4-6 h, Day 1",13%
same,"% Pretreatment PARP Activity, Median (%)","PARP [1]; PBL, cohorts 5-8, Compound I 12 mg/m^2, 0.5 h, Day 1",14.5%
same,"% Pretreatment PARP Activity, Median (%)","PARP [1]; PBL, cohorts 5-8, Compound I 12 mg/m^2, 24 h, Day 1",29%
same,PARP inhibitory dose (PID),"PARP [1]; patients, PARP activity in peripheral blood lymphocytes <50% of baseline 24 hours after Day 1 dose, with plateau",12 mg/m^2
"CNCc1ccc(-c2[nH]c3cc(F)cc4c3c2CCNC4=O)cc1 [compound of formula 1, 8-fluoro-2-{4-[(methylamino)methyl]phenyl}-1,3,4,5-tetrahydro-6H-azepino[5,4,3-cd]indol-6-one]",Topotecan PF50,"A549 cells; A549, +0.4 μM compound of formula 1",1.6
same,Temozolomide PF50,"A549 cells; A549, GI50 temozolomide alone/GI50 temozolomide+0.4 μM compound of formula 1",3.5
same,PF50 (Temozolomide),"A549 cells; A549, compound 0.0005 μM",1
same,PF50 (Topotecan),"A549 cells; A549, compound 0.0005 μM",1.4
same,PF50 (Topotecan),"A549 cells; A549, compound 0.005 μM",1.8
same,PF50 (Temozolomide),"A549 cells; A549, compound 0.005 μM (5 nM)",1.3
same,PF50 (Topotecan),"A549 cells; A549, compound 0.05 μM",2.1
same,PF50 (Temozolomide),"A549 cells; A549, compound 0.1 μM",2.6
same,PF50 (Topotecan),"A549 cells; A549, compound 0.1 μM",2.2
same,PF50 (Temozolomide),A549 cells; [4],3.5
same,PF50 (Topotecan),A549 cells; [4],2.4
same,GI50,"A549 cells; A549, LoVo and SW620 cell lines, read-out: GI50 values, range over cell lines",7 to 12 µM
same,GI50,"A549 cells; A549, read-out: GI50",7 µM
same,fraction unbound,"Human protein binding; human, plasma, concentrations between 0.05 to 25 nM",0.274
same,plasma concentration from 5 nM target effect corrected for human protein binding,Human protein binding; target effect IC89 in A549 cells,5.9 ng/mL
same,AUC(0-inf),[2]; 15 mg/kg single IV dose (free base) as glucuronate salt,4100 ± 500 ng·h/mL
same,clearance,[2]; [5],61.8 ± 8.2 mL/min/kg
same,half-life,[2]; [5],4.5 ± 1.1 h
same,Vd,"[2]; 15 mg/kg single IV dose as glucuronate salt, read-out: Vss",15.2 ± 2.3 L/kg
same,Enhancement (%),"LoVo xenografts; IR 2 Gy + 0.15 mg/kg i.p. 30 minutes before, daily × 5, 0.15 mg/kg",36% and 36^e %
same,Enhancement (%),"LoVo xenografts; IR 2 Gy + 15 mg/kg i.p. 30 minutes before, daily × 5, 15 mg/kg",36% and 36^f %
same,inhibition of MNNG-induced NAD depletion,PARP [3]; 50 nM,93%
same,inhibition of poly-ADP-ribose polymer formation,PARP [3]; 50 nM,95%
same,NAD (% DMSO),PARP [3]; compound 0.0005 μM,77 % DMSO
same,Polymer (% MNNG),PARP [3]; compound 0.0005 μM,40 % MNNG
same,NAD (% DMSO),PARP [3]; compound 0.005 μM,95 % DMSO
same,Polymer (% MNNG),PARP [3]; compound 0.005 μM,11 % MNNG
same,NAD (% DMSO),PARP [3]; compound 0.05 μM,96 % DMSO
same,Polymer (% MNNG),PARP [3]; compound 0.05 μM,5 % MNNG
same,NAD (% DMSO),PARP [3]; compound 0.1 μM,97 % DMSO
same,Polymer (% MNNG),PARP [3]; compound 0.1 μM,4 % MNNG
same,NAD (% DMSO),PARP [3]; compound 0.4 μM,97 % DMSO
same,Polymer (% MNNG),PARP [3]; compound 0.4 μM,4 % MNNG
same,inhibition of cellular poly-ADP-ribose formation,"PARP [3]; MNNG-induced, 5 nM",89%
